Where “and” joins values, the source holds several entries; their conditions need not be identical. Equal values may be shown once.
Experiments:
[1] = tested on: puromycin-induced acute nephrosis model; assay: Puromycin-induced acute nephrosis model: urinary albumin excretion; type: in vivo, SD (Sprague-Dawley) rat
Method: It is known that a single intravenous dose of 50 mg/kg of puromycin to a 5-week-old SD (Sprague-Dawley) male rat damages the glomerular epithelial cells, causing severe proteinuria peaking from day 6 to day 14 and gradually decreasing thereafter, and again showing tubular proteinuria (see J. R. Diamond, and M. J. Karnovsky: Focal and segmental glomerulosclerosis following a single intravenous dose of puromycin aminonucleoside, Am. J. Pathol; 1986; 122; 481-487) (hereinafter, this model will be referred to as puromycin-induced acute nephrosis model). Using the above puromycin-induced acute nephrosis model as a model of glomerular lesions, the combinational effect of interferon γ and the composition for preventing, ameliorating, or treating glomerular lesions or disease of kidney was examined. To a 5-week-old SD (Sprague-Dawley) male rat, 30 mg/kg/day of said composition (6-2) was subcutaneously administered every day from five days before the administration of puromycin, and at the same time, 0.25 ml (2.3×10^4U) of rat recombinant interferon γ (by PeproTeck, final concentration: 9.09 μg/ml) was intraperitoneally administered on alternate days from five days before the administration of puromycin, followed by a single intravenous dose of 50 mg/kg of puromycin. Even after the administration of puromycin, the same amount of the composition (6-2) and the rat recombinant interferon γ were continuously administered every day and on alternate days respectively. On days 6, 12, and 19 after the administration of puromycin, 24-hour urine collection was performed to measure the amount of rat urinary albumin excretion by ELIZA method. At the same time, the urinary creatinine concentration was also measured by enzyme method. As indexes of glomerular epithelial damage, albumin excretion and the ratio of urinary albumin excretion to urinary creatinine were compared.

[2] = tested on: rat unilateral ureteral obstruction release model; assay: Rat unilateral ureteral obstruction release model: glomerular and tubulointerstitial lesions, Asc-1+ cells; type: in vivo, SD rat;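 for Tubulointerstitial lesion: atrophy of tubules associated with dilatation of tubules (score): ± very light + light ++ moderate +++ high change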;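 for Tubulointerstitial lesion: fibrosis of interstitial tissue (score): ± very light + light ++ moderate +++ high change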;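 for Tubulointerstitial lesion: thickness of basement membrane (score): ± very light + light ++ moderate +++ high change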
From the text: An experimental model was produced in accordance with the method devised and established by Ishibashi (Michio Ishibasi et al., Japanese Journal of Nephrology 42: 248, 2000), using a 8 to 9-week-old male SD rat weighing about 280 g. […] On day 14 after obstruction, the obstruction was released, and the urinary tract was reconstructed using a cuff. That is, 14 days later, the ligated ureteral obstruction part was partially removed, and a 25 gauge polyethylene tube (made by Nippon Sherwood) as a cuff was inserted from the lower normal ureteral stump and placed in the lumen. Next, the cuff was placed also in the expanded upper ureter, and both parts were ligated for fixation with a 7-0 nylon suture to reconstruct the urinary tract. At the same time, the right kidney was removed. The weight was measured after obstruction release, and the blood was collected on days 2, 5, and 7 after release for serum creatinine determination. On day 7, the rat was sacrificed under anesthesia and the left obstruction release kidney was removed. The weight of the removed kidney was measured, and the kidney pathomorphological examination was performed.
The biological effects of the test compound were studied in vivo using the model obtained in the above procedure 1). The test compound in the form of bulk powder was dissolved in sterilized physiologic saline together with gum arabic, where the concentration of the gum arabic was adjusted to 5% and the concentration of the test compound was adjusted to 30 mg/ml. The amount of 30 mg/kg was subcutaneously administered every day. Daily administration was continued for 21 days during 14 days of obstruction and 7 days after obstruction release. For controlled comparison, the solvent of 5% gum arabic was administered alone.
On day 22 from the administration of the test compound, the rat was sacrificed under anesthesia, and the left obstruction release kidney was removed and neutral formalin fixed. The fixed renal tissue embedded in paraffin was sliced into 4-micrometer-thick pieces for examination.
The tissue section was observed under a microscope in order to count the number of glomeruli and the number of glomeruli having a lesion (expansion of a tubular pole associated with swollen Bowman's capsule epithelial cells or hypertrophy of a Bowman's capsule basal membrane) in the field of view, and the number of glomeruli having the lesion (referred to as “lesioned glomerulus”) per 50 glomeruli was calculated.
As for the effectiveness to improve of glomerular lesions, when the number of lesioned glomeruli per 50 glomeruli was reduced to less than or equal to half the average number of those of the control group, it was determined as improved.
An affinity-purified anti-rat Asc-1 polyclonal antibody (rabbit) was prepared as follows: that is, in order to prepare an anti-Asc-1 peptide polyclonal antibody (rabbit), an oligopeptide (PSPLPITDKPLKTQC (SEQ. ID NO: 4)) corresponding to amino acid residues of 517-530 of Asc-1 was synthesized (see J Biol Chem (2000); 275: 9690-9698), keyhole limpet hemocyanine was bound to the C-terminal cysteine as an adjuvant, and […] was immunized therewith. The serum was collected on days 7 and 14 from the immunization. The serum was concentrated by means of an adsorption-dissociation operation using an affinity column to which an oligopeptide corresponding to amino acid residues of 517-530 of Asc-1 was bound in order to obtain an affinity-purified antibody having a protein content of 0.5 mg/ml. As for immunopathological examination, paraffin rat […] diluted with PBS to the optimal concentration was used.
The immune tissue staining was performed based on the protocol of Ventana HX system bench mark (Ventana Japan K.K., Tokyo) including the automated immunostaining device manufactured by Ventana Japan K.K. After deparaffinization, the tissue section was heat-treated at 100° C. for 1 hour. […]

4F2hc = 4F2hc on large-cell fraction of LPS-stimulated THP-1, peak value by FACScan; type: cell-based, human
Method: The same procedures as in Experimental Example 2 were taken except the following conditions: human leukemia culture cell line THP-1 was used instead of the human peripheral blood mononuclear cells; the final addition concentration of the test compound (6-2) was set to 100 nM, and the final addition concentration of the test compound (7-3) was set to 1000 nM; and fetal bovine serum was used instead of the human AB serum. The peak value of HAT expressed on the fraction of large-cells in human leukemia culture cell strain THP-1, compared with those not stimulated with LPS, was measured. As a control, the one with no test-compound addition was used, and the peak value of HAT was measured by FACScan using a commercially available cell fix/cell membrane infiltration kit (trade name: BD Cytofix/Cytopem™ Kit, catalog No. 554714, BD Bioscience).

[3] = group average ± standard deviation
[4] = individual animal, 30 mg/kg s.c. daily for 21 days, 30 mg/kg
[5] = individual animal, points: ± 0.5, + 1, ++ 2, +++ 3

O=C1CCC(F)(C(=O)OCc2ccccc2)O1 (stereo not drawn) [Compound (6-2)]
Albumin Excretion, Day 6 ([1]; group average): 98.3 mg/day | Albumin Excretion, Day 12 ([1]; group average): 182.6 mg/day | Albumin Excretion, Day 19 ([1]; group average): 101.0 mg/day | Urinary Albumin Excretion/Urinary Creatinine, Day 6 ([1]; group average): 16.7 1/Cr | Urinary Albumin Excretion/Urinary Creatinine, Day 12 ([1]; group average): 29.1 1/Cr | Urinary Albumin Excretion/Urinary Creatinine, Day 19 ([1]; group average): 15.8 1/Cr | Urinary Albumin Excretion/Urinary Creatinine, Day 6 ([1]; individual animal): 12.1 1/Cr and 21.2 1/Cr | Urinary Albumin Excretion/Urinary Creatinine, Day 12 ([1]; individual animal): 22.3 1/Cr and 35.8 1/Cr | Urinary Albumin Excretion/Urinary Creatinine, Day 19 ([1]; individual animal): 11.0 1/Cr and 20.5 1/Cr | Albumin Excretion, Day 6 ([1]; individual animal, 24-hour urine, day 6 after puromycin, compound 30 mg/kg/day s.c., 30 mg/kg/day): 80.7 mg/day and 115.9 mg/day | Albumin Excretion, Day 12 ([1]; individual animal, 24-hour urine, day 12 after puromycin, compound 30 mg/kg/day s.c., 30 mg/kg/day): 136.0 mg/day and 229.1 mg/day | Albumin Excretion, Day 19 ([1]; individual animal, 24-hour urine, day 19 after puromycin, compound 30 mg/kg/day s.c., 30 mg/kg/day): 73.4 mg/day and 128.6 mg/day | Glomerular lesion: number of lesioned glomeruli per 50 glomeruli, expansion of tubular pole associated with swollen Bowman's capsule epithelial cells [2, 3]: 3 ± 2 per 50 glomeruli | Glomerular lesion: number of lesioned glomeruli per 50 glomeruli, hypertrophy of Bowman's capsule basal membrane [2, 3]: 7 ± 2 per 50 glomeruli | Number of Asc-1+ cells per 50 glomeruli [2, 3]: 8.01 ± 1.96 per 50 glomeruli | Tubulointerstitial lesion: atrophy of tubules associated with dilatation of tubules (score) [2, 3]: 0.90 ± 0.3 | Tubulointerstitial lesion: fibrosis of interstitial tissue (score) [2, 3]: 1.5 ± 0.6 | Tubulointerstitial lesion: thickness of basement membrane (score) [2, 3]: 1.5 ± 0.6 | Tubulointerstitial lesion: total score [2, 3]: 3.9 ± 1.0 | Glomerular lesion: number of lesioned glomeruli per 50 glomeruli, expansion of tubular pole associated with swollen Bowman's capsule epithelial cells [2, 4]: 2 per 50 glomeruli (2×) and 5 per 50 glomeruli and 1 per 50 glomeruli | Glomerular lesion: number of lesioned glomeruli per 50 glomeruli, hypertrophy of Bowman's capsule basal membrane [2, 4]: 6 per 50 glomeruli and 9 per 50 glomeruli and 5 per 50 glomeruli and 8 per 50 glomeruli | Number of Asc-1+ cells per 50 glomeruli [2, 4]: 9.40 per 50 glomeruli and 9.05 per 50 glomeruli and 5.12 per 50 glomeruli and 8.47 per 50 glomeruli | Improvement of glomerular lesion ([2]; individual animal, Yes = lesioned glomeruli per 50 glomeruli reduced to less than or equal to half the control average): Yes (3×) and No | Improvement of tubulointerstitial lesion ([2]; individual animal, Yes = reduced to less than or equal to half the control average): No | Tubulointerstitial lesion: atrophy of tubules associated with dilatation of tubules (score) [2, 5]: 1 (3×) and 0.5 | Tubulointerstitial lesion: fibrosis of interstitial tissue (score) [2, 5]: 1 (2×) and 2 (2×) | Tubulointerstitial lesion: thickness of basement membrane (score) [2, 5]: 1 (2×) and 2 (2×) | Tubulointerstitial lesion: total score ([2]; individual animal, sum of the three scores): 3 (2×) and 4.5 and 5 | glomerular lesion (in words) ([2]; summary of Table 5): selectively reduced | uriniferous tubule lesion (in words) ([2]; summary of Table 5): not reduced | Asc-1 positive cells in the glomeruli (in words) ([2]; versus control group): increased more significantly than in the control group | Change in HAT expressed on large-cell fraction of THP-1 (peak value by FACScan), 4F2hc (4F2hc; THP-1 + LPS 80 μg/ml, fetal bovine serum, test compound 100 nM, solvent control 12): 25 | amount of 4F2hc in the heavy chain of HAT (in words) (4F2hc; THP-1 + LPS, summary of Table 3): remarkably changed
